pIC50: −log10 of the molar value. Square brackets hold non-standard residues; d marks the D form. Peptide text beside a SMILES is read from it. Orn = NCCC[C@H](N)C(=O)O
Legend:
Erythrocyte [1] = test: Haemolytic activity in human RBC after 4 hrs by visual method; type: ADME, cell-based
Lipopolysaccharide (LPS) = test: Displacement of Dansyl-polymyxin from Pseudomonas aeruginosa LPS by fluorescence method; details: read-out: I50
[2] = Therapeutic index, ratio of HD100 for hemolytic activity in human RBC to MIC against Escherichia coli UB1005; type: toxicity; details: human red blood cells, read-out: TI
[3] = Therapeutic index, ratio of HD100 for hemolytic activity in human RBC to MIC against Pseudomonas aeruginosa H187; type: toxicity; details: human red blood cells, read-out: TI
[4] = Therapeutic index, ratio of HD100 for hemolytic activity in human RBC to MIC against Enterococcus faecalis ATCC 29212; type: toxicity; details: human red blood cells, read-out: TI
[5] = Therapeutic index, ratio of HD100 for hemolytic activity in human RBC to MIC against Staphylococcus aureus K147; type: toxicity; details: human red blood cells, read-out: TI
[6] = Therapeutic index, ratio of HD100 for hemolytic activity in human RBC to MIC against Candida albicans; type: toxicity; details: human red blood cells, read-out: TI
[7] = (§1) Haemolytic activity in human erythrocytes; type: ADME, cell-based, Erythrocyte; details: human erythrocytes
Erythrocyte [8] = test: as §1; type: ADME, cell-based; details: erythrocyte
[9] = Therapeutic index, ratio of HD100 for hemolytic activity in human erythrocytes to MIC against Escherichia coli ATCC 25922; type: toxicity, cell-based; details: read-out: TI
[10] = Therapeutic index, ratio of HD100 for hemolytic activity in human erythrocytes to MIC against Pseudomonas aeruginosa ATCC 27853; type: toxicity, cell-based; details: read-out: TI
[11] = Therapeutic index, ratio of HD100 for hemolytic activity in human erythrocytes to MIC against Enterococcus faecalis ATCC 29212; type: toxicity, cell-based; details: read-out: TI
[12] = Therapeutic index, ratio of HD100 for hemolytic activity in human erythrocytes to MIC against Staphylococcus aureus ATCC 29213; type: toxicity, cell-based; details: read-out: TI
[13] = Therapeutic index, ratio of HD100 for hemolytic activity in human erythrocytes to MIC against methicillin-resistant Staphylococcus aureus ATCC 4330; type: toxicity, cell-based; details: read-out: TI
[14] = Hemolytic activity in sheep RBC incubated for 30 mins; type: ADME, cell-based, Ovis aries, Erythrocyte; details: sheep red blood cells
[15] = Haemolytic activity in human erythrocytes incubated for 30 mins; type: ADME, cell-based, Erythrocyte
[16] = Hemolytic activity against RBC (unknown origin) at 100 ul after 4 hrs; type: ADME, cell-based, Erythrocyte; details: red blood cells (unknown origin)
Erythrocyte [17] = test: Haemolytic activity in human RBC after 30 mins by spectrophotometric analysis; type: ADME, cell-based; details: 0.5 h
[18] = Haemolytic activity in human erythrocytes at 100 ug/ml after 30 mins relative to control; type: ADME, cell-based, Erythrocyte; details: read-out: Activity
[19] = Hemolytic activity in sheep erythrocytes; type: ADME, cell-based, Ovis aries, Erythrocyte
[20] = Haemolytic activity in human RBC after 4 hrs; type: ADME, cell-based, Erythrocyte; details: human red blood cells
[21] = Haemolytic activity in human RBC incubated for 1 hr; type: ADME, cell-based, Erythrocyte; details: human red blood cells
[22] = Therapeutic index, ratio of HC90 for hemolytic activity in human erythrocytes to MIC against Escherichia coli ATCC 25922; type: toxicity, cell-based; details: read-out: TI
[23] = Therapeutic index, ratio of HC90 for hemolytic activity in human erythrocytes to MIC against Enterococcus faecalis ATCC 29212; type: toxicity, cell-based; details: read-out: TI
[24] = Therapeutic index, ratio of HC90 for hemolytic activity in human erythrocytes to MIC against Staphylococcus aureus ATCC 25923; type: toxicity, cell-based; details: read-out: TI
[25] = Therapeutic index, ratio of HC90 for hemolytic activity in human erythrocytes to MIC against Staphylococcus epidermidis ATCC 12228; type: toxicity, cell-based; details: read-out: TI

CC(C)C[C@@H]1NC(=O)[C@H](CCCN)NC(=O)[C@H](C(C)C)NC(=O)[C@@H]2CCCN2C(=O)[C@@H](Cc2ccccc2)NC(=O)[C@H](CC(C)C)NC(=O)[C@H](CCCN)NC(=O)[C@H](C(C)C)NC(=O)[C@@H]2CCCN2C(=O)[C@@H](Cc2ccccc2)NC1=O (cyclo(L[dF]PV[Orn]L[dF]PV[Orn]))
HD100 (Erythrocyte [1]): 12.5 µg/mL
pIC50 (Lipopolysaccharide (LPS)): 3.53
selectivity ratio [2]: 2
selectivity ratio [3]: 0.6
selectivity ratio [4]: 4.5
selectivity ratio [5]: 8.3
selectivity ratio [6]: 4
HC50 [7]: 12 µg/mL
Activity (Erythrocyte [8]): 62.5 µg/mL
selectivity ratio [9]: 2
selectivity ratio [10]: 1
selectivity ratio [11]: 7.8
selectivity ratio [12]: 15.6
selectivity ratio [13]: 7.8
HC50 at 0.5 h [14]: 25 to 35 µg/mL
HC50 at 0.5 h [15]: 5 to 10 µg/mL
HC50 at 4 h [16]: 5 to 31.2 µg/mL
HC90 (Erythrocyte [17]): 12 µg/mL
hemolysis at 0.5 h, 100 ug/ml [18]: 80%
HC50 [19]: 25 to 35 µg/mL
HC50 at 4 h [20]: 17.5 µg/mL
HC50 at 1 h [21]: 14.3 µg/mL
selectivity ratio [22]: 0.38
selectivity ratio [23]: 1.5
selectivity ratio [24]: 3
selectivity ratio [25]: 6

Source: ChEMBL document CHEMBL4376803, “Recent Advances in the Exploration of Therapeutic Analogues of Gramicidin S, an Old but Still Potent Antimicrobial Peptide” (J Med Chem, 2019)
